Calls of active or inactive are those of the source. The calls are words filed in the database; no cut-off is given here. Peptide text beside a SMILES is read from it.
Experiments:
[1] = biological target: T1, L-lactate dehydrogenase B chain (Homo sapiens, UniProt P07195); experiment: Binding affinity to truncated human N-terminal His6-tagged LDH-H expressed in Escherichia coli Rosetta (DE3) after 5 mins by Red-NHS fluorescence dye-based microscale thermophoresis analysis
[2] = biological target: T1, L-lactate dehydrogenase B chain; experiment: Binding affinity to truncated human N-terminal His6-tagged LDH-H expressed in Escherichia coli Rosetta (DE3) in sodium phosphate buffer at pH 7.6 by WaterLOGSY NMR analysis
Target sequence in this assay (P07195 2-334 limits assumed): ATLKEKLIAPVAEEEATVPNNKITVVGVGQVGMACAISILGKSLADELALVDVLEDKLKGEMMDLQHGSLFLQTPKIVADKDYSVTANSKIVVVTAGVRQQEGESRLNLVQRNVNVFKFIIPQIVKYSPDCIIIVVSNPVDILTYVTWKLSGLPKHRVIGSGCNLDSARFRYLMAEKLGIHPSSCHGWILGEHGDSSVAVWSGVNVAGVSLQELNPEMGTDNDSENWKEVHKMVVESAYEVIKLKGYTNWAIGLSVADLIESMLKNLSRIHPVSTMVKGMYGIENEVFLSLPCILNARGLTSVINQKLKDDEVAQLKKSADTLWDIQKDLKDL

[3] = biological target: T1, L-lactate dehydrogenase B chain; experiment: Binding affinity to full length human N-terminal His6-tagged LDH-H expressed in Escherichia coli Rosetta (DE3) assessed as effect on tetramerization site at 100 to 200 uM in sodium phosphate buffer at pH 7.6 by WaterLOGSY NMR analysis
Target sequence in this assay (P07195 2-334 limits assumed): as above

[4] = Conformational stability in sodium phosphate buffer assessed as helical structural propensity at 200 uM and pH 7.6 at 25 degree C by circular dichroism method; type: physicochemical; details: pH 7.6, 200 µM
[5] = biological target: T1, L-lactate dehydrogenase B chain; experiment: Binding affinity to full length human N-terminal His6-tagged LDH-H expressed in Escherichia coli Rosetta (DE3) in sodium phosphate buffer at pH 7.6 by WaterLOGSY NMR analysis
Target sequence in this assay (P07195 whole entry, the tested form may be a part): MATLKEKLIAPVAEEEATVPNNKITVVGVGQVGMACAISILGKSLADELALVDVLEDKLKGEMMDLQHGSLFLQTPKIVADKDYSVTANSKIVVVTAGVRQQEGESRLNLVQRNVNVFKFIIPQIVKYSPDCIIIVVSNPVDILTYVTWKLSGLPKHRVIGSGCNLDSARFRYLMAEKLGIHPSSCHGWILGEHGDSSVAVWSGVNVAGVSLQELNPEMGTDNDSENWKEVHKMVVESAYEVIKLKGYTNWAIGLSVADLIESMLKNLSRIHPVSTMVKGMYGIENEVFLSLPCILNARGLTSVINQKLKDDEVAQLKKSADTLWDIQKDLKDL

Compound	Activity [3]	other results
CC[C@H](C)[C@@H]1NC(=O)[C@H](CC(C)C)NC(=O)[C@@H](NC(=O)[C@H](CCC(=O)O)NC(=O)[C@H](CCCCN)NC(=O)[C@H](CC(C)C)NC(=O)[C@@H](NC(=O)[C@H](C)N)[C@@H](C)O)CSCc2cccc(c2)CSC[C@@H](C(N)=O)NC(=O)[C@H](C)NC1=O (HELM PEPTIDE1{A.T.L.K.E.C.L.I.A.C.[am]}|CHEM1{[c1cc(C[*:1])cc(C[*:2])c1]}$PEPTIDE1,CHEM1,6:R3-1:R1|PEPTIDE1,CHEM1,10:R3-1:R2$$$V2.0)		Kd [1]: > 1 mM
CC[C@H](C)[C@@H]1NC(=O)[C@H](CC(C)C)NC(=O)[C@@H](NC(=O)[C@H](CCC(=O)O)NC(=O)[C@H](CCCCN)NC(=O)[C@H](CC(C)C)NC(=O)[C@@H](NC(=O)[C@H](C)N)[C@@H](C)O)CCCCNC1=O (HELM PEPTIDE1{A.T.L.K.E.K.L.I}$PEPTIDE1,PEPTIDE1,6:R3-8:R2$$$V2.0)		Kd [1]: > 1 mM
CC[C@H](C)[C@H](NC(=O)[C@H](CC(C)C)NC(=O)C(C)(C)NC(=O)[C@H](CCC(=O)O)NC(=O)[C@H](CCCCN)NC(=O)[C@H](CC(C)C)NC(=O)[C@@H](NC(=O)[C@H](C)N)[C@@H](C)O)C(N)=O (HELM PEPTIDE1{A.T.L.K.E.[Aib].L.I.[am]}$$$$V2.0)		Activity [2]: Active; Activity [1]: inactive
CC[C@H](C)[C@H](NC(=O)[C@H](CC(C)C)NC(=O)[C@H](CCCCN)NC(=O)[C@H](CCC(=O)O)NC(=O)C(C)(C)NC(=O)[C@H](CC(C)C)NC(=O)[C@@H](NC(=O)[C@H](C)N)[C@@H](C)O)C(N)=O (HELM PEPTIDE1{A.T.L.[Aib].E.K.L.I.[am]}$$$$V2.0)		Activity [2]: Active; Activity [1]: inactive
CC[C@H](C)C(NC(=O)[C@H](CC(C)C)NC(=O)[C@H](CCCCN)NC(=O)[C@H](CCC(=O)O)NC(=O)[C@@H]1CSCc2cccc(c2)CSC[C@H](N)C(=O)N[C@@H](C)C(=O)N[C@@H]([C@@H](C)O)C(=O)N[C@@H](CC(C)C)C(=O)N1)C(N)=O (stereo partly drawn) (HELM PEPTIDE1{C.A.T.L.C.E.K.L.[CC[C@H](C)C(N[*:1])C(=O)[*:2]].[am]}|CHEM1{[c1cc(C[*:1])cc(C[*:2])c1]}$PEPTIDE1,CHEM1,1:R3-1:R1|PEPTIDE1,CHEM1,5:R3-1:R2$$$V2.0)		Kd [1]: > 1 mM
Ac-TLKEKLI-NH2	inactive	Stability [4]: Unstable
H-AALKEKLI-NH2	inactive	
H-ATAKEKLI-NH2	inactive	
H-ATGKEKLI-NH2	inactive	
H-ATLAEKLI-NH2	inactive	
H-ATLKAKLI-NH2	inactive	
H-ATLKDQLI-OH		Kd [5]: 1.49 mM
H-ATLKEALI-NH2	inactive	
H-ATLKEKAI-NH2	inactive	
H-ATLKEKL-NH2	inactive	Stability [4]: Unstable
H-ATLKEKLA-NH2	inactive	
H-ATLKEKLG-NH2	inactive	
H-ATLKEKLIAPVAE-NH2		Kd [5]: 1.05 mM
H-GTLKEKLI-NH2	inactive	
